# In paper PMC7718273 (Scientific Reports, 2020):
# “And” between values parts separate entries of the source, which are not always exact repeats. Equal entries are not always repeated. Where two headings read alike, the source gives them in different places.
# Tests used:
# [1] = system: FAP; assay: In vivo study using cynomolgus monkeys: plasma FAP activity; design: species or system cynomolgus monkey; conditions: 50 mg/kg intranasal
# [2] = system: ob/ob mice; assay: Chronic study using ob/ob mice (4 weeks)
# Text: (a) Nonfasting blood glucose levels in ob/ob mice. […] (g) The plasma levels of ALT (GPT), AST (GOT), TG, total cholesterol and NEFA in ob/ob mice. […] (i) Relative expression of genes related to intrahepatic lipogenic gene (GCK), fatty acid and TG synthesis genes (FASN, SREBP and APOC3, LIPIN1), β-oxidation genes (CPT1α, MCAD and PPARα) and FGF21 related genes (ATF4, CHOP, FGF21 and β-klotho) in liver and FGF21 related genes (AdipoQ and β-klotho) in white adipose tissue of ob/ob mice.
# During the observation period, mice were monitored for glucose profiles and weighed. […] Under anesthesia, blood was promptly collected by orbital bleeding and then harvested. Liver tissue was then collected. Serum ALT, AST, TG, total cholesterol, and NEFA levels were assessed by KNOTUS (Incheon, Korea).
# [3] = target: T1, hFAP (Homo sapiens, UniProt Q12884); assay: FAP enzyme activity, fluorometric assay with AMC substrate; format: biochemical
# T1 construct: purchased R&D Systems 3715-SE
# T1 sequence (Q12884 whole entry): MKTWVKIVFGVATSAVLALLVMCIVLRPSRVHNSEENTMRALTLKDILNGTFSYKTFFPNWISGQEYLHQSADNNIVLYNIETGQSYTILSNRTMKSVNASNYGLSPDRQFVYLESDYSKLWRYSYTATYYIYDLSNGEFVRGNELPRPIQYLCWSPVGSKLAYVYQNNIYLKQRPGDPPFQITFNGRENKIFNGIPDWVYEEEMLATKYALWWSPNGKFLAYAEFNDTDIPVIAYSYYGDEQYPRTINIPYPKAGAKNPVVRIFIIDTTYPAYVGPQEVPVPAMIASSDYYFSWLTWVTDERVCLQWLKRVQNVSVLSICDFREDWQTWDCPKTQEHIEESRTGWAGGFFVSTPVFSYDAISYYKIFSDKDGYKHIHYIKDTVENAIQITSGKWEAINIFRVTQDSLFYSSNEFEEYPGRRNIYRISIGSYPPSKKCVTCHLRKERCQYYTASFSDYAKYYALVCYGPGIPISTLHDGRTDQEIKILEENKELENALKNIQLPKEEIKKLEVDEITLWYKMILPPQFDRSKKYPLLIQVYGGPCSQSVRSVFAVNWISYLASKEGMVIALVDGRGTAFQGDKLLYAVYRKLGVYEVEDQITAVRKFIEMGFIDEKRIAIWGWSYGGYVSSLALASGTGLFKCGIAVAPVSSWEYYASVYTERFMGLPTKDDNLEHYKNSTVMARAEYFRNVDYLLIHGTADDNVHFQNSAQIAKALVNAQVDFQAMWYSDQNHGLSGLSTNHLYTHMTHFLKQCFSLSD
# Method: Recombinant human PREP (hPREP) (catalog no. 4308-SE), hDPP2/7 (catalog no. 3438-SE), hDPP9 (catalog no. 5419-SE), hFAP (catalog no. 3715-SE), and hDPP4 (catalog no. 9168-SE) proteins were from R&D Systems (Minneapolis, MN). Human FGF21 (catalog no. CRF159C) was from Cell Science (Newburyport, MA).
# FAP enzyme activities were assayed in 20 mM Tris/HCl, 0.1 M NaCl, 1 mM EDTA (pH 8.0) in the presence of 40 μM Suc-Gly-Pro-Leu-Gly-Pro-AMC (#I-1350.0100, BACHEM, Bubendorf, Switzerland) and hFAP in a total volume of 100 µL. […] The inhibitor concentrations ranged from 100 μM to 0.03 nM, and its IC50 values were computed with commercially available curve-fitting programs such as the SigmaPlot. Other protease activities were determined in a similar manner.
# [4] = system: T2, FAP; assay: In vivo study using CDAHFD mice: FAP activity at week 14; design: species or system C57BL/6J mice; conditions: 10 and 30 mg/kg p.o. for 10 weeks, vs vehicle
# T2 construct: from tissue; host or cells: mouse serum/plasma (ob/ob and C57BL/6J mice)
# Method: C57BL/6J mice were fed normal chow diet (n = 5) or choline-deficient, L-amino acid-defined, high-fat diet (CDAHFD) for 4 weeks to induce NASH (n = 8–10/group). […] (a) Relative FAP activity was assessed by FRET-quench and serum FGF21 level at week 14. […] (c) Steatosis scores ranged from 0 to 3 (normal = 0, minimal = 1, moderate = 2, marked = 3) were determined. Hepatic steatosis and fibrosis (Picrosirius red stain) were analyzed in a blinded manner or by digital image analyzer. (d–e) Histological evaluations of liver tissue were performed in each group. Paraffin-embedded liver sections were stained with H&E (d) and Sirius red (e). Representative photographs of each group were presented. Images were obtained at 100x (Scale bar = 50 µm).
# Male C57BL/6J mice (5 weeks of age) were fed with a CDAHFD consisting of 60% kcal fat and 0.1% methionine. […] For the CDAHFD model, compound treatments were started at the beginning of week 4 on the diet and continued until week 14. […] Liver tissue was then collected. All other measurements were done similarly as described above. Staining was performed using H&E and Picrosirius red as described previously. Areas of positive Sirius red were quantified by computer-based morphometric analysis.
# [5] = target: serum FAP (Macaca fascicularis, UniProt A0A2K5VGH4); assay: IC50 on serum FAP, monkeys; format: biochemical; conditions: read-out: Serum FAP IC50 (nM): Monkey
# Chain of serum FAP (A0A2K5VGH4 entry or part of it): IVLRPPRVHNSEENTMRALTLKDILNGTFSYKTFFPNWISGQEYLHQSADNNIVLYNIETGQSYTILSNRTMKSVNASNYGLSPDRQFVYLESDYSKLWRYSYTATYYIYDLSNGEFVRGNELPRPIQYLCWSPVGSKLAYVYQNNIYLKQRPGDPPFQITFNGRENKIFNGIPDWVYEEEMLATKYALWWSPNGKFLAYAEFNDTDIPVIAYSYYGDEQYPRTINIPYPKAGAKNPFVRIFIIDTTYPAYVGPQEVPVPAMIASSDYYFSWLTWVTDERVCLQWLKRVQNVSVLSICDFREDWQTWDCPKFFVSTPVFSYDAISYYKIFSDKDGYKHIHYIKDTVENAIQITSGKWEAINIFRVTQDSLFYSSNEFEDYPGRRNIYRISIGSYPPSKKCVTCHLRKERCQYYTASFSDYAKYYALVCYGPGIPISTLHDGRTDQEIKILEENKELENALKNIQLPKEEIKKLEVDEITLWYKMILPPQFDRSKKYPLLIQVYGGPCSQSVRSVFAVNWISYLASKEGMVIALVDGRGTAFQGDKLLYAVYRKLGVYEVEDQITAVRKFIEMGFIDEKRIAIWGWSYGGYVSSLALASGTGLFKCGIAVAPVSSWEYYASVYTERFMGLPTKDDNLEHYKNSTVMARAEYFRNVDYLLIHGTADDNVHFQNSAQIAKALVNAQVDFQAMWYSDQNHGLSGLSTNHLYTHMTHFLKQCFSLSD
# [6] = Thermodynamic solubility; format: physicochemical; conditions: thermodynamic from solid
# [7] = system: differentiated 3T3/L1 adipocytes; assay: hFGF21 signalling in differentiated 3T3/L1 adipocytes with added FAP (immunoblot); format: cell-based; conditions: 5 µM; hFGF21 500 ng/mL pre-incubated with FAP 100 ng/mL for 2 h
# Method: Treatment with hFGF21 increased p-ERK, Glut1 and adiponectin levels, which were reduced in the presence of FAP.
# (a) Fully differentiated 3T3/L1 adipocytes were incubated with full-length hFGF21 at 500 ng/mL. […] Phosphorylated ERK (p-ERK), total ERK (ERK), Glut1, adiponectin and β-actin were measured by immunoblots. (b) Quantification of p-ERK, Glut1 and adiponectin was obtained with densitometric analysis, and normalized with total ERK or β-actin, respectively.
# Western blots were performed as described. For protein preparation, cells or tissues were solubilized in a lysis buffer. Protein concentration was determined using a Bio-Rad Protein Assay kit (Bio-Rad, Richmond, CA). Then, 20 μg of the protein was electrophoresed by SDS-PAGE and electrotransferred to polyvinylidene fluoride membranes (Millipore, Bedford, MA). […] Antibodies were detected by horseradish peroxidase-linked secondary antibody (1:10,000; Cell Signaling Tech., 7074S), using the enhanced chemiluminescence Western Blotting Detection System (Molecular Imager Gel Doc XR System, BIO-RAD). […]
# [8] = system: T3, endogenous mouse FAP; assay: Acute study using ob/ob mice: plasma FAP activity; format: in vivo; conditions: single oral dose 20 or 50 mg/kg, in 1 h, maintained up to 9 h
# T3 construct: from tissue; host or cells: mouse serum/plasma (ob/ob and C57BL/6J mice)
smiles,measurement,setting,value
"N#Cc1ccc(Cc2nc(C(=O)NCC(=O)N3CC(F)(F)C[C@H]3C#N)cs2)cc1 [BR103354, (S)-N-(2-(2-cyano-4,4-difluoropyrrolidin-1-yl)-2-oxoethyl)-2-(4-cyanobenzyl)thiazole-4-carboxamide]","inhibition of FAP activity, maximal","[1]; cynomolgus monkeys (n = 3), range of individual animals",65–83%
same,time of maximal effect on FAP activity and intact FGF21,"[1]; cynomolgus monkeys, 50 mg/kg",1 h and 2 h
same,glucose tolerance (oral glucose tolerance test),[2]; 50 mg/kg,improved glucose tolerance significantly
same,"FGF21, ATF4 and CHOP mRNA expression in liver",[2]; 4 weeks,increased
same,liver TG content (Oil red O staining),[2]; 4 weeks,decreased
same,body weight between treatments,[2]; 4 weeks (data not shown),no change
same,ERK phosphorylation in adipose tissues,"[2]; 4 weeks, vs vehicle",increased
same,Serum alanine aminotransferase (ALT),"[2]; 4 weeks, vs vehicle",significantly reduced
same,aspartate aminotransferase (AST),"[2]; 4 weeks, vs vehicle",significantly reduced
same,non-esterified free fatty acid (NEFA) levels,"[2]; 4 weeks, vs vehicle",unaltered
same,serum TG,"[2]; 4 weeks, vs vehicle",unaltered
same,total cholesterol,"[2]; 4 weeks, vs vehicle",significantly reduced
same,nonfasting blood glucose,"[2]; 20 and 50 mg/kg once daily p.o., from 2 weeks, vs vehicle (P < 0.01)",significantly decreased
same,increase of total form of serum FGF21,"[2]; 20 and 50 mg/kg, week 4",approximately 1.4 fold
same,adiponectin level in white adipose tissues,[2]; after 4 weeks of treatment,increased
same,fasting blood glucose levels,[2]; after 4 weeks of treatment,significantly reduced
same,fasting body weights,[2]; after 4 weeks of treatment,significantly reduced
same,insulin levels,[2]; after 4 weeks of treatment,significantly reduced
same,liver weights,[2]; after 4 weeks of treatment,significantly reduced
same,IC50,"[3]; 40 μM Suc-Gly-Pro-Leu-Gly-Pro-AMC, 60 min at 37 °C, read-out: IC50 (nM) FAP",14 nM
same,IC50,"[3]; various assays: SDS-PAGE shift, AMC-coupled substrate, serum samples from different species, read-out: IC50 values on FAP, all measurements",10 to 30 nM
same,FAP activity,[4],inhibited in a dose-dependent manner
same,IC50,[5],27 nM
same,solubility thermodynamic,"[6]; aqueous buffer, pH 3.0",165 µg/mL
same,solubility thermodynamic,"[6]; aqueous buffer, pH 7.0",141 µg/mL
same,solubility thermodynamic,"[6]; simulated gastric fluid, pH 1.0",197 µg/mL
same,Glut1 levels,[7],enhanced Glut1 levels
same,p-ERK levels,[7],restored p-ERK levels to those of normal
same,inhibition of plasma FAP activity,[8],more than 70%
